Results reported in ChEMBL document CHEMBL4334448, “Chivosazole A Modulates Protein-Protein Interactions of Actin” (J Nat Prod, 2019).
The source made the active and inactive calls. No cut-off for these calls is given here.

Columns and labels:
[1] = target: Actin, alpha skeletal muscle (Oryctolagus cuniculus) (UniProt P68135); test: Inhibition of immobilized rabbit skeletal muscle alpha-actin interaction with thymosin-beta4 assessed as decrease in cross-linked complex formation at 40 uM pretreated for 30 mins followed by thymosin-beta4 addition measured after 45 mins by cross-linking assay
[2] = target: Actin, alpha skeletal muscle (Oryctolagus cuniculus) (UniProt P68135); test: Binding affinity to immobilized rabbit skeletal muscle alpha-actin assessed as formation of G-actin dimers at 40 uM and pH 6.8 to 8 treated for 30 mins in absence of thymosin-beta4 by size-exclusion chromatography
[3] = system: HUVEC; test: Induction of morphological changes in human HUVEC cells assessed as disruption of F-actin fibers at 10 nM to 100 nM incubated for 1 hr by rhodamine-phalloidin staining based fluorescence assay; format: functional, cell-based
[4] = target: Actin, alpha skeletal muscle (Oryctolagus cuniculus) (UniProt P68135); test: Inhibition of immobilized rabbit skeletal muscle alpha-actin interaction with profilin at 66.7 uM pretreated for 30 mins followed by profilin addition measured after 1 hr by pull-down assay
[5] = target: Actin, alpha skeletal muscle (Oryctolagus cuniculus) (UniProt P68135); test: Binding affinity to immobilized rabbit skeletal muscle alpha-actin assessed change in retention time of G-actin dimers at 40 uM and pH 6.8 to 8 treated for 30 mins in absence of thymosin-beta4 by size-exclusion chromatography
[6] = system: HUVEC; test: Induction of morphological changes in human HUVEC cells assessed as amorphous actin aggregation in nucleus incubated for 1 hr by Hoechst staining based fluorescence assay; format: functional, cell-based
[7] = target: Actin, alpha skeletal muscle (Oryctolagus cuniculus) (UniProt P68135); test: Inhibition of immobilized rabbit skeletal muscle alpha-actin interaction with thymosin-beta4 at 40 uM pretreated for 30 mins followed by thymosin-beta4 addition measured after 45 mins by cross-linking assay
[8] = target: Actin, alpha skeletal muscle (Oryctolagus cuniculus, UniProt P68135); test: (§1) Inhibition of rabbit skeletal muscle alpha-actin polymerization measured after 24 hrs in presence of ATP and fluorescent pyrene-labelled actin by fluorescence based assay
[9] = target: Actin, alpha skeletal muscle (Oryctolagus cuniculus) (UniProt P68135); test: as §1
[10] = system: HUVEC; test: Antiproliferative activity against human HUVEC measured after 72 hrs; format: cell-based
[11] = target: Actin, alpha skeletal muscle (Oryctolagus cuniculus) (UniProt P68135); test: Inhibition of immobilized rabbit skeletal muscle alpha-actin interaction with gelsolin at 12.5 uM pretreated for 30 mins followed by gelsolin addition measured after 1 hr by pull-down assay
[12] = target: Actin, alpha skeletal muscle (Oryctolagus cuniculus) (UniProt P68135); test: Induction of rabbit skeletal muscle alpha-actin depolymerization assessed as destabilization of F-actin 5 uM measured every 15 sec for 90 mins in presence of Turkey gizzard alpha-actinin and […] fluorescent labelled actin by TIRF microscopy analysis
[13] = target: Actin, alpha skeletal muscle (Oryctolagus cuniculus) (UniProt P68135); test: Inhibition of rabbit skeletal muscle alpha-actin nucleation at 500 nM to 5 uM in presence of Turkey gizzard alpha-actinin and […] fluorescent labelled actin by TIRF microscopy analysis
[14] = target: Actin, alpha skeletal muscle (Oryctolagus cuniculus) (UniProt P68135); test: Inhibition of immobilized rabbit skeletal muscle alpha-actin interaction with cofilin at 56 uM pretreated for 30 mins followed by cofilin addition measured after 1 hr by pull-down assay
[15] = target: Actin, alpha skeletal muscle (Oryctolagus cuniculus) (UniProt P68135); test: Inhibition of rabbit skeletal muscle alpha-actin polymerization induced by Mg-ATP assessed as decrease in elongation rate at 500 nM to 5 uM measured every 1 sec for 5 mins in presence of Turkey gizzard alpha-actinin and […] fluorescent labelled actin by TIRF microscopy analysis
[16] = system: HUVEC; test: Inhibition of cell migration in human HUVEC cells assessed as decrease in cell velocity measured after 16 hrs by crystal violet staining based scratch assay; format: functional

CO[C@H]1[C@H](O[C@H]2/C=C\C=C\c3coc(n3)[C@H](C)[C@H](OC)C[C@@H](O)/C=C/C=C/C=C\[C@H](C)[C@@H]([C@@H](C)[C@@H](O)C[C@@H](C)O)OC(=O)\C=C/C=C/C=C\C(C)=C\[C@H]2C)O[C@H](C)[C@@H](O)[C@@H]1OC
Activity [1]: Active
Activity [2]: Active
Activity [3]: Active
inhibition [4]: Active
Activity [5]: Active
Activity [6]: Active
inhibition [7]: Active
IC50 [8]: 15200 nM
inhibition [9]: Dose-dependent effect
IC50 [10]: 2.98 to 3 nM
inhibition [11]: Active
Activity [12]: Active
inhibition [13]: Active
inhibition [14]: Active
inhibition [15]: Active
IC50 [16]: 31.7 nM

CO[C@@H]1C[C@@H](O)/C=C/C=C/C=C\[C@H](C)[C@@H]([C@@H](C)[C@@H](O)C[C@@H](C)O)OC(=O)\C=C/C=C/C=C\C(C)=C\[C@@H](C)[C@@H](O)/C=C\C=C\c2coc(n2)[C@@H]1C
inhibition [4]: Active
inhibition [11]: Active
inhibition [14]: Active

C/C1=C/C(=O)O[C@@H]2C[C@@H](CC[C@H](C)/C=C\CC1)O[C@@](O)([C@@H]1CSC(=O)N1)C2 [LATRUNCULIN B]
Activity [1]: Active
Activity [2]: inactive
inhibition [4]: inactive
inhibition [7]: Active
IC50 [8]: 8470 nM
inhibition [9]: Dose-dependent effect
IC50 [10]: 612 nM
inhibition [11]: inactive
inhibition [14]: inactive
IC50 [16]: 478 nM
